US11198673B2, “Therapeutic compounds and compositions” (eXIthera Pharmaceuticals, Inc., priority 2014, dated 2021)
Where a name gives a salt, the structure may show the parent alone.

Experiments:
human Factor XIa = biological target: T1, human Factor XIa (Homo sapiens, UniProt P03951); assay: Factor XIa enzyme inhibition assay (IC50, purified enzyme); assay type: biochemical; details: purified enzyme 0.25 nM, substrate 50 μM; read-out: Potency hFXIa IC50
T1 construct: Enzyme: Factor XIa; 0.25 μM in 50% glycerol (20 μg/mL)
T1 sequence (P03951 388-625 limits assumed): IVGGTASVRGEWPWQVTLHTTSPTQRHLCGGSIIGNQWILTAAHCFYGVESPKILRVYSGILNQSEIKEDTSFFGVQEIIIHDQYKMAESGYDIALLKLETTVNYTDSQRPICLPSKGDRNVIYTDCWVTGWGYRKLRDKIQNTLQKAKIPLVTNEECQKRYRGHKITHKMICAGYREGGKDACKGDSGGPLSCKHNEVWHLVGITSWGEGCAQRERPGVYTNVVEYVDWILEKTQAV
T1 sequence (P03951 19-387 partner limits assumed): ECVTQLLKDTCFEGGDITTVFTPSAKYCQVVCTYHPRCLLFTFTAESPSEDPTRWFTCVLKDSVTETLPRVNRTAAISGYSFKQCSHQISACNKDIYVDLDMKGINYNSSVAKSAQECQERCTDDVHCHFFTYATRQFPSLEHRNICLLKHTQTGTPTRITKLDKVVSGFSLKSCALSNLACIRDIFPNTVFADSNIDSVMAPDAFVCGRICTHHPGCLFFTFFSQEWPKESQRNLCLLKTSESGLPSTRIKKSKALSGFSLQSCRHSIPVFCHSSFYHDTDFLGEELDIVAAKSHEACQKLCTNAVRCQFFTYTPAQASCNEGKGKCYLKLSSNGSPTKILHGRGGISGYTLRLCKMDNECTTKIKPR
Protocol: • Assay buffer: 20 mM Hepes, pH 7.4; 150 mM NaCl; 0.02% Tween 20 • Compounds: 10 mM stocks in DMSO • Substrate: 20 mM Glp-Pro-Arg-AMC, 25 mg/2.3 mL H2O (store at +4° C.) [Factor XIa, thrombin, and trypsin] • 20 mM Pro-Phe-Arg-AMC (Bachem I-1295), 25 mg/2.2 mL H2O (store at +4° C.) [Factor Xa] • Enzyme: Factor XIa; 0.25 μM in 50% glycerol (20 μg/mL) • Trypsin; 0.2 μM in 50% glycerol (4.8 μg/mL) • Thrombin; 0.2 μM in 50% glycerol (7.34 μg/mL) • Factor Xa; 0.2 μM in 50% glycerol (9.2 μg/mL) • These stocks are aliquoted ([…]) and stored at −20° C. Methods: • 1. Dilute the substrate to 100 μM in assay buffer (30 μL/6 mL). The enzyme is diluted to 0.5 nM just prior to use (12 μL/6 mL for Factor XIa; 15 μL/6 mL for all of the rest.) • 2. Pipette 50 μL of substrate into each well of the 96 well (12×8) microtiter plate. (Column 1 is used as the 100% activity control and receives no compound, and Column 12 is the blank and receives no enzyme.) Add an additional 46 μL to column 2. • 3. Pipette 4 μL of each compound into the appropriate well in column 2 of the plate (unknowns assayed in triplicate, standard assayed in duplicate). The final compound concentration will be 1/50th of the stock. • 4. Serially two-fold dilute the compound by mixing the sample in column 2, removing 50 μL to the next well (column 3), mix and remove to column 4, etc. until column 11. After mixing column 11, remove 50 μL and discard. • 5. Pipette 50 μL of buffer into column 12. Initiate the reaction by adding 50 μL of enzyme solution to each well of columns 1-11 as rapidly as possible. • 6. Read the plate in a spectrophotometer (SpectraMax) at 30° C., wherein each well is measured every 60 s for 30 min. For Factor Xa assays, each well is measured every 1 min for a total of 60 min. • 7. For Factor XIa assays, the compounds are assayed, in duplicate, at 3 different starting concentrations, 20, 2, and 0.2 μM; 1:10, 1:100, and 1:1000 dil'n of 10 mM stock. All data sets are combined for graphing and data fitting. • 8. Data can be used both for estimation of IC50 and for estimation of Kon.
Potential inhibitors of Factor XIa were evaluated using the following assay.
S-2366, pyroGlu-Pro-Arg-7-methylaminocourin (AMC), available from CPC Scientific, Inc., is based on the substrate pyro-Glu-Pro-Arg-pNA, available from Diapharma Group, Inc. (Columbus, Ohio), where the p-nitroanaline group is replaced with 7-methylaminocoumarin (AMC).
The final concentration of the substrate in the assay was 50 μM, and the final concentration of the enzyme was 0.25 nM. Inhibitors were tested by serial dilution over an appropriate range to yield a dose response curve for determination of the inhibitors' IC50 value. The assay mixture was read every minute for 30 minutes in order to generate progress curves. The plates were read in a Spectramax m5 Multimode Plate Reader (Molecular Devices LLC, Sunnyvale, Calif.). Dose response curves were fit to Equation 1 below in which A is the maximum inhibition, B is the minimum inhibition, C is the IC50, and D is the Hill coefficient. [(A−B)/(1+(X/C)^D)]+B (Equation 1)

[1] = β-Lactam stability in rat plasma; assay type: in vitro ADME; details: normal rat plasma, room temperature; read-out: Rat Plasma Stability (T1/2; min)
Protocol: Normal rat plasma, stored at −80° C.
• 1. Place 6 μL of each compound into 0.5 mL microcentrifuge tubes or 96-well U-bottom, polypropylene microtiter plate • 2. Place 40 μL of acetonitrile (AcN) into 0.5 mL microcentrifuge tubes labeled 1-9 • 3. Add 114 μL of plasma to each compound • 4. Sample 10 μL of compound/plasma into AcN at 2, 10, 20, 30, 60, 90, 120, 240, and 480 min of incubation at room temperature • 5. Mix each time point after adding sample and place on ice. • 6. Centrifuge time points (12,000 rpm, 3 min), remove 15 μL of the supernatant and mix with 15 μL 0.1% TFA in a V-bottom microtiter plate. • 7. Place microtiter plate in autosampler of HPLC and analyze on Restek Pinnacle C18 column (2.1×100 mm). • 8. Generate extracted ion chromatogram for parent compound and parent compound+18 (H2O). Integrate extracted ion chromatograms (EIC) and plot % total peak area for parent and adduct versus time. Fit to a model of single phase exponential decay [Y=A0*exp(−k*x)+C]. T½ is equal to ln(2)/k.

IC50 (human Factor XIa) [µM] | half-life [1] [h] | Compound
> 1 | – | O=C(O)[C@@H]1[C@@H](Cc2ccnc(Cl)c2)C(=O)N1C(=O)NC(c1ccccc1)c1ccccc1 [Example 51]
> 1 | > 1.67 | CCCCCCOC(=O)Nc1cc(C[C@H]2C(=O)N(C(=O)NC(c3ccccc3)c3ccccc3)[C@@H]2C(=O)O)ccn1 [Example 56]
> 1 | < 1.67 | CCCCCCOC(=O)Nc1cc(C[C@H]2C(=O)N(C(=O)NC(c3ccccc3)c3ccccc3)[C@@H]2C(=O)OCC)ccn1 [Example 57]
> 1 | – | CCOC(=O)[C@@H]1[C@@H](Cc2cccnc2)C(=O)N1C(=O)N[C@H](C)c1ccc2c(c1)OC(F)(F)O2 [Example 95]
> 1 | – | C[C@@H](NC(=O)N1C(=O)[C@H](Cc2ccc(Cl)nc2)[C@H]1C(=O)O)c1ccc2c(c1)OC(F)(F)O2 [Example 96]
> 1 | < 1.67 | CCOC(=O)[C@@H]1[C@@H](Cc2ccc(Cl)nc2)C(=O)N1C(=O)N[C@H](C)c1ccc2c(c1)OC(F)(F)O2 [Example 97]
> 1 | > 1.67 | C[C@@H](NC(=O)N1C(=O)[C@H](Cc2cncs2)[C@H]1C(=O)O)c1ccc2c(c1)OC(F)(F)O2 [Example 102]
> 1 | – | C[C@@H](NC(=O)N1C(=O)[C@H](Cc2cc(Cl)ccn2)[C@H]1C(=O)O)c1ccc2c(c1)OC(F)(F)O2 [Example 107]
> 1 | – | C[C@@H](NC(=O)N1C(=O)[C@H](Cc2cncc(Cl)c2)[C@H]1C(=O)O)c1ccc2c(c1)OC(F)(F)O2 [Example 108]
> 1 | – | C[C@@H](NC(=O)N1C(=O)[C@H](Cc2ccccn2)[C@H]1C(=O)O)c1ccc2c(c1)OC(F)(F)O2 [Example 114]
> 1 | – | O=C(O)[C@@H]1[C@@H](Cc2cccc(Br)c2)C(=O)N1C(=O)N[C@@H](C1CCCCC1)C(F)(F)F [Example 131]
> 1 | – | O=C(O)[C@@H]1[C@@H](Cc2cncc(Cl)c2)C(=O)N1C(=O)N[C@@H](C1CCCCC1)C(F)(F)F [Example 133]
0.1 to 1 | – | O=C(O)[C@@H]1[C@@H](Cc2cccc3c2OCO3)C(=O)N1C(=O)N[C@@H](C1CCCCC1)C(F)(F)F [Example 136]
> 1 | – | O=C(O)[C@@H]1[C@@H](Cc2cccc3[nH]ncc23)C(=O)N1C(=O)N[C@@H](C1CCCCC1)C(F)(F)F [Example 138]
> 1 | – | O=C(O)[C@@H]1[C@@H](Cc2ccccc2)C(=O)N1C(=O)N[C@@H](C1CCCCC1)C(F)(F)F [Example 139]
> 1 | – | C[C@H](c1ccccc1)N(C)C(=O)N1C(=O)[C@H](CCc2cccc(Cl)c2)[C@H]1C(=O)O [Example 144]
> 1 | – | O=C(O)[C@@H]1[C@@H](CCc2ccccc2)C(=O)N1C(=O)N[C@@H](C1CCCCC1)C(F)(F)F [Example 145]
> 1 | – | O=C(O)[C@@H]1[C@@H](Cc2ccnc(O)c2)C(=O)N1C(=O)N[C@@H](C1CCCCC1)C(F)(F)F [Example 147]
0.01 to 0.1 | – | C[C@H](C1CCCCC1)N(C)C(=O)N1C(=O)[C@H](Cc2ccnc(N)c2)[C@H]1C(=O)O [Example 149]
0.01 to 0.1 | < 1.67 | CCOC(=O)[C@@H]1[C@@H](Cc2ccnc(NC(=O)OC(C)OC(=O)C(C)C)c2)C(=O)N1C(=O)N[C@H](C)C1CCCCC1 (stereo partly drawn) [Example 150]
0.01 to 0.1 | < 1.67 | CCOC(=O)[C@@H]1[C@@H](Cc2ccnc(N)c2)C(=O)N1C(=O)N(C)[C@H](C)C1CCCCC1 [Example 151]

IC50 (human Factor XIa) [µM] | half-life [1] [h] | Compound
> 1 | – | O=C(O)[C@@H]1[C@@H](CCCc2ccccc2)C(=O)N1C(=O)N[C@@H](C1CCCCC1)C(F)(F)F [Example 152]
> 1 | – | O=C(O)[C@@H]1[C@@H](CCc2ccc(Cl)cc2)C(=O)N1C(=O)N[C@@H](C1CCCCC1)C(F)(F)F [Example 153]
> 1 | – | COc1cccc(CC[C@H]2C(=O)N(C(=O)N[C@@H](C3CCCCC3)C(F)(F)F)[C@@H]2C(=O)O)c1 [Example 154]
0.1 to 1 | – | Cc1cccc(CC[C@H]2C(=O)N(C(=O)N[C@@H](C3CCCCC3)C(F)(F)F)[C@@H]2C(=O)O)c1 [Example 155]
> 1 | – | O=C(O)[C@@H]1[C@@H](CCc2cccc(Cl)c2)C(=O)N1C(=O)NC(c1ccccc1)c1ccccc1 [Example 157]
0.1 to 1 | – | C[C@@H](NC(=O)N1C(=O)[C@H](CCc2cccc(Cl)c2)[C@H]1C(=O)O)c1ccc2c(c1)OC(F)(F)O2 [Example 159]
0.1 to 1 | < 1.67 | CCCCCCOC(=O)Nc1cc(C[C@H]2C(=O)N(C(=O)NC(C)c3ccccc3)[C@@H]2C(=O)OCC)ccn1 (stereo partly drawn) [Example 160]
> 1 | < 1.67 | CC(C)OC(=O)[C@@H]1[C@@H](Cc2ccc(Cl)nc2)C(=O)N1C(=O)N[C@H](C)c1ccc2c(c1)OC(F)(F)O2 [Example 171]
> 1 | > 1.67 | CCCCCCOC(=O)Nc1cc(C[C@H]2C(=O)N(C(=O)N[C@H](C)c3ccccc3)[C@@H]2C(=O)O)ccn1 [Example 175]
> 1 | – | C[C@@H](NC(=O)N1C(=O)[C@H](Cc2ccnc(Cl)c2)[C@H]1C(=O)O)c1ccccc1 [Example 190]
> 1 | – | C[C@@H](NC(=O)N1C(=O)[C@H](Cc2cccnc2)[C@H]1C(=O)O)c1ccc2c(c1)OC(F)(F)O2 [Example 191]
> 1 | – | CCCC(CCC)NC(=O)N1C(=O)[C@H](CCc2cccc(Cl)c2)[C@H]1C(=O)O [Example 192]
> 1 | – | O=C(O)[C@@H]1[C@@H](Cc2cccc(Cl)c2)C(=O)N1C(=O)N[C@@H](C1CCCCC1)C(F)(F)F [Example 193]
> 1 | – | O=C(O)[C@@H]1[C@@H](CCc2ccccc2Cl)C(=O)N1C(=O)N[C@@H](C1CCCCC1)C(F)(F)F [Example 194]
> 1 | – | O=C(O)[C@@H]1[C@@H](Cc2ccc(Cl)cc2)C(=O)N1C(=O)N[C@@H](C1CCCCC1)C(F)(F)F [Example 195]
> 1 | – | O=C(O)[C@@H]1[C@@H](Cc2ccccc2Cl)C(=O)N1C(=O)N[C@@H](C1CCCCC1)C(F)(F)F [Example 196]
0.1 to 1 | – | O=C(O)[C@@H]1[C@@H](CCc2cc(Cl)ccc2F)C(=O)N1C(=O)N[C@@H](C1CCCCC1)C(F)(F)F [Example 197]
0.1 to 1 | – | O=C(O)[C@@H]1[C@@H](CCc2cc(Cl)ccc2Cl)C(=O)N1C(=O)N[C@@H](C1CCCCC1)C(F)(F)F [Example 198]
0.1 to 1 | – | O=C(O)[C@@H]1[C@@H](CCc2cccc(Cl)c2)C(=O)N1C(=O)N[C@@H](C1CCCCCCC1)C(F)(F)F [Example 199]
> 1 | – | O=C(O)[C@@H]1[C@@H](CCc2ccc(Br)s2)C(=O)N1C(=O)N[C@@H](C1CCCCC1)C(F)(F)F [Example 200]

Compound | IC50 (human Factor XIa) [µM] | half-life [1] [h]
C[C@@H](NC(=O)N1C(=O)[C@H](Cc2ccnc(N)c2)[C@H]1C(N)=O)c1ccccc1 [Example 13, (2S,3R)-3-[(2-aminopyridin-4-yl)methyl]-4-oxo-N-1-[(1R)-1-phenylethyl]azetidine-1,2-dicarboxamide trifluoroacetate] | > 1 | –
